Entries after “also recorded” stand apart in the source; their conditions may differ.
What was measured:
[1] = Accumulation in the brain after repeated dosing; format: in vivo, mice; conditions: 10 mg/kg, after 3 weeks
Method: Thus, a 10 mg/kg dose for 4 weeks can be administered.

[2] = system: 3T3-L1 adipocytes; test: Lipid accumulation by oil red-o staining; format: cell-based; conditions: 6 days, oil red-o stain
Method: 3T3L1 adipocytes were cultured and treated with the novel compounds for a period of 6 days. Lipid accumulation was determined by oil red-o staining, and measured the absorbance spectrophotometrically at a wavelength of 510 nm and standardized to total protein concentrations. Data from lipid accumulation studies were compared to cells treated with rosiglitazone (a full PPARγ agonist).

[3] = Biodistribution by LC-Mass Spectral analysis; conditions: mice; for concentration at 4 h: mouse, po, 3 mg/kg, 3 mg/kg (table)
[4] = target: T1, PPARγ (AP2-PPRE) (Homo sapiens, UniProt P37231); test: AP2-PPRE luciferase assay in HEK-293 cells; format: cell-based
T1 construct: expressed in transfected cells; host or cells: HEK-293
T1 sequence (P37231 1-505): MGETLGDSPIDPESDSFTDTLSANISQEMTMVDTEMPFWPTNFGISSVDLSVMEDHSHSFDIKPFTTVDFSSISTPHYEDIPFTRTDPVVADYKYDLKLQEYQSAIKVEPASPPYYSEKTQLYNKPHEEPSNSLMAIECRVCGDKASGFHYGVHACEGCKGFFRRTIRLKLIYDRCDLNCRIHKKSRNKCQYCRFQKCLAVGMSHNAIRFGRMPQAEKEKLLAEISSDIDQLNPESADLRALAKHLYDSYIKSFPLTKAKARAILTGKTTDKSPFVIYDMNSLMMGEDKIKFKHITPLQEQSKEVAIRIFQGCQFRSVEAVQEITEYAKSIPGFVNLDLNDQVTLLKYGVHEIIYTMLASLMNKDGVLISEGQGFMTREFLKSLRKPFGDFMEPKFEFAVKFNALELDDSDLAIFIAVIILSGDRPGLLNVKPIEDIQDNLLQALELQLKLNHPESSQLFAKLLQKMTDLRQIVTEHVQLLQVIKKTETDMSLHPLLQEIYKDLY
T1 sequence (P19793 1-462 partner): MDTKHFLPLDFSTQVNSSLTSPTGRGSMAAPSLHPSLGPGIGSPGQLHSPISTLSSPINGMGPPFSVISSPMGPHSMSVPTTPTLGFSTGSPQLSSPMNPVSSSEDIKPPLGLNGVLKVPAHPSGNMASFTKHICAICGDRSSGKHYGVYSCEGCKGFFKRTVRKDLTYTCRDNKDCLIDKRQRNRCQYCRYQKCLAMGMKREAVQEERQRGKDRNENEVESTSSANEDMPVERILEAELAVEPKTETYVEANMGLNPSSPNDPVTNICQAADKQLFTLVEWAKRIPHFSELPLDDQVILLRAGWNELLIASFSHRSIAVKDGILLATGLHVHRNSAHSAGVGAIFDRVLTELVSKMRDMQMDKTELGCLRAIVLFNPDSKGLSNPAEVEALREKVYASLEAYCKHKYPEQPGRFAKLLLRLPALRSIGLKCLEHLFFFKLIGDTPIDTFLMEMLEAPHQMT
Source text: To validate the specificity of the novel compounds towards activation of PPARγ/δ targets, we tested the compounds capacity to bind to select PPARγ/δ Peroxisome Proliferator Response Elements (PPRE). The PPRE are unique sites located in the promoter region where PPARs bind and transcriptionally activate the target genes. AP2-PPRE is the PPARγ target involved in adipocyte growth and differentiation. PDK4-PPRE is a PPARδ target involved in regulating energy metabolism in the cell. These PPREs were inserted into a PGL3 luciferase vectors containing CMV promoters (ADDGENE) using PCR. These vectors were co-transfected with RXR, PPARγ/PPARδ and p-galactosidase vectors into HEK-293 cells using Lipofectamine 2000 (Invitrogen). Relative light units (RLU) were measured using a Glomax Luminometer (Promega). Data were standardized to p-galactosidase activity using ONPG (Promega).

[5] = system: C2C12 skeletal muscle cells; test: Mitochondrial biogenesis markers by quantitative RT-PCR; format: cell-based; conditions: 4 days
Method: Therefore, to test the effects of the novel compounds on mitochondrial biogenesis, C2C12 skeletal muscle cells were cultured and treated with the novel compounds for 4 days. Changes associated with markers for mitochondrial biogenesis were determined by quantitative real time PCR.

[6] = system: db/db mice; test: Y maze behavioral test, compound 9; format: in vivo; conditions: oral, 1 mg/kg
Method: Groups of mice can be subjected to Y-maze tests and object recognition tests (ORT) to determine the improvement of working and declarative memory. Briefly the Y-maze test involves the novel arm being blocked, so mice are allowed to explore the other two arms for 15 minutes. Appropriate external and internal cues are assigned for each arm. After 15 minute training sessions, the mice are caged in the same room for 4 hours (holding session) followed by the novel arm exploration where mice are allowed to explore the novel arm for […].

[7] = system: PPARγ/δ targets; test: mRNA analyses of PPARγ/δ targets in 3T3-L1 adipocytes; format: cell-based; conditions: 10 μM
Source text: Compound 9 increased the gene expression of PPARγ targets MCAD, HSL, ATGL and adiponectin.

[8] = Heart size (heart weight to body weight ratio); format: in vivo; conditions: 10 mg/kg oral daily for 1 month, wild type and db/db mice
Method: Diabetic db/db mice were fed a normal rodent chow diet. […] Mice were then weighed and their hearts were extracted and weighed. The heart weight of the mice compared to the body weight of the mice was then calculated based upon heart weight to body weight ratio.

In the case of `Cc1ccc(CNCCCN(Cc2ccc(C(=O)O)cc2)Cc2cc(C(F)(F)F)cc(C(F)(F)F)c2)cc1` [Compound 9], the “Accumulation in the brain” value [1] is reported as “accumulate in the brain”, the Lipid accumulation [2] is reported as “less lipid accumulation” and the Lipid accumulation ([2]; listed as compound 9) is reported as “negligible effects”. For the same molecule, the “Detection in the brain (crosses the blood brain barrier)” value ([3]; oral, 4 hours) was “detected”, the concentration at 4 h ([3]; adipose, Concentration) was 40.4 ng/mL and the concentration at 4 h ([3]; adipose, Tissue Concentration) was 15.2 ng/mL. For the same molecule, the concentration at 4 h ([3]; adipose, Tissue Distribution) was 3.47 ng/mL, the concentration at 4 h ([3]; blood, Concentration) was 144 ng/mL and the concentration at 4 h ([3]; brain, Concentration) was 38.7 ng/mL. It also gave a concentration at 4 h ([3]; brain, Tissue Concentration) of 17.2 ng/mL, a concentration at 4 h ([3]; brain, Tissue Distribution) of 2.96 ng/mL and a concentration at 4 h ([3]; heart, Concentration) of 22.1 ng/mL. The concentration at 4 h ([3]; heart, Tissue Concentration) was 3.19 ng/mL, the concentration at 4 h ([3]; heart, Tissue Distribution) was 1.35 ng/mL and the concentration at 4 h ([3]; liver, Concentration) was 200 ng/mL. The concentration at 4 h ([3]; liver, Tissue Concentration) was 24.8 ng/mL, the concentration at 4 h ([3]; liver, Tissue Distribution) was 11.9 ng/mL and the “Binding affinity for the AP2-PPRE” value ([4]; luciferase assay, HEK-293 cells, 10 μM) was “less binding affinity”. For the same molecule, the “Activation of the AP2-PPRE” value ([4]; transcriptional assays) was “minimally activates”, the “Cytochrome oxidase c 4-2 subunit expression” value [5] was “significantly increased” and the “Gene expression of mitochondrial markers” value [5] was “increases”. The “Cognition in Y maze behavioral tests” value [6] was “improves cognition”, the “Expression of genes associated with lipid accumulation and synthesis (FATP, CD36, DGAT)” value [7] was “marginally induced” and the “Gene expression of PDK4” value [7] was “increased”. The “Gene expression of PPARγ targets MCAD, HSL, ATGL and adiponectin” value [7] was “increased” and the Heart size [8] was “lacks increase in heart size; also recorded: decreased heart size”.

— US9422239B1, “Dual PPAR-δ PPAR-γ agonists” (Auburn University, priority 2013, dated 2016)
